Assay results published in ChEMBL document CHEMBL1201862, “PubChem BioAssay data set” (2004).
Counter-ions that a name gives are not always drawn. The source made the active and inactive calls.

Legend:
HeLa = test: viability loss in HeLa cells – cell-based, ATP luminescence, cherry-pick samples, cytotoxicity control, dose response (AID 687004); assay type: functional; settings: Homo sapiens
[1] = IC50 of insulin release inhibition, rat insulinoma INS-1E line, 5 mM glucose, cell-based (AID 1117331); assay type: functional
Large T antigen = Large T antigen (Simian virus 40, UniProt P03070); assay type: functional, Betapolyomavirus macacae;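 further: Confirmatory-stage PubChem screen for compounds that inhibit SV40 T antigen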
Sequence of Large T antigen (P03070 whole entry): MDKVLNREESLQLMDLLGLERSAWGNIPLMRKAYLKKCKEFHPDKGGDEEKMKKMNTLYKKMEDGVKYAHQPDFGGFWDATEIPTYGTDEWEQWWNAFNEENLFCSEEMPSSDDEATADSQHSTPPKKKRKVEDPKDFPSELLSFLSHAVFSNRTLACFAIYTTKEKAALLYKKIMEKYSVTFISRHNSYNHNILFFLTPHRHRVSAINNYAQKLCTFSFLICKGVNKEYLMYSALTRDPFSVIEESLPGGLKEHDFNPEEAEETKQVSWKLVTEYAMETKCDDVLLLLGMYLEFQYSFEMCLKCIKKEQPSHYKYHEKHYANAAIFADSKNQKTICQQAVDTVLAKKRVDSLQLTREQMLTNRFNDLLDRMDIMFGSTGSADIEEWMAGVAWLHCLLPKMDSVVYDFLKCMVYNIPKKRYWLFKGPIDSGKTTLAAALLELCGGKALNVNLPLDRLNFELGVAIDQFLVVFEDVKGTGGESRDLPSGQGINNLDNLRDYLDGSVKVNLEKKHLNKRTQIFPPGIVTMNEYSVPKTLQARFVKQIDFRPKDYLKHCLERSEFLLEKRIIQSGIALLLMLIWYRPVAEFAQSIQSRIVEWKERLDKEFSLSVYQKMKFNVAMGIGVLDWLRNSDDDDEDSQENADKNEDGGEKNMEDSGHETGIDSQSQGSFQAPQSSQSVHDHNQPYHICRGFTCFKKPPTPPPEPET

[2] = target: Bifunctional protein GlmU (Mycobacterium tuberculosis, UniProt P9WMN3); test: Inhibitors of Mycobacterial Glucosamine-1-phosphate acetyl transferase (GlmU). Secondary screen.; set-up: species or system Mycobacterium tuberculosis H37Rv
Sequence of Bifunctional protein GlmU (P9WMN3 whole entry): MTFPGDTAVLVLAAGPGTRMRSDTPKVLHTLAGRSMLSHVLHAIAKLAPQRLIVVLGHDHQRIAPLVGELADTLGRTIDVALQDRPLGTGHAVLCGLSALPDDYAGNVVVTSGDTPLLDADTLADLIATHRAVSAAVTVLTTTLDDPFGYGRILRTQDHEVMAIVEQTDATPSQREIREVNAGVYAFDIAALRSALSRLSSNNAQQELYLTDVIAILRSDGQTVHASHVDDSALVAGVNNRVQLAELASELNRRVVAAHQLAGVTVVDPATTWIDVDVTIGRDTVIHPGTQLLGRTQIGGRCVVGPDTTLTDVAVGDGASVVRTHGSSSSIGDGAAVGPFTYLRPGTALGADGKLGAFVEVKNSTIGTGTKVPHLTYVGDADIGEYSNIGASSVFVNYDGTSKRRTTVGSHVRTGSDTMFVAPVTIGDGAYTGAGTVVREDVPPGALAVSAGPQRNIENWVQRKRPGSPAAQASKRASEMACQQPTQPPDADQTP

Nonstructural protein 1 = Nonstructural protein 1 (Influenza A virus, UniProt Q194T2); assay type: functional, Influenza A virus (A/California/07/2009(H1N1))
Sequence of Nonstructural protein 1 (Q194T2 whole entry): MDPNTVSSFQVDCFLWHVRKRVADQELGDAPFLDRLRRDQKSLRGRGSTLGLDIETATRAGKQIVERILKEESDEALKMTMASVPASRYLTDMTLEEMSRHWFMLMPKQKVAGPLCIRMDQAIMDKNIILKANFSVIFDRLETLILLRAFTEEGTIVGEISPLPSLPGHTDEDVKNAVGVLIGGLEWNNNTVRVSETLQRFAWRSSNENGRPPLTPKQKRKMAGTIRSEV

Protein S100-A4 = Protein S100-A4 (Homo sapiens, UniProt P26447); test: human S100A4 peptide interaction inhibition curves – biochemical, fluorescence polarization, cherry-picked hits, dose response (AID 687001); assay type: functional
Sequence of Protein S100-A4 (P26447 whole entry): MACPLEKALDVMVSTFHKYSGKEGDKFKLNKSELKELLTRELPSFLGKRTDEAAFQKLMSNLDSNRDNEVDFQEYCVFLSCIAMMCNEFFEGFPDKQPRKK

[3] = target: NAD-dependent protein deacylase sirtuin-5, mitochondrial (Homo sapiens, UniProt Q9NXA8); test: blockers of sirtuin-5 peptide desuccinylation – biochemical, fluorescence imaging, cherry-pick, set 6, dose response (AID 720597)
Sequence of NAD-dependent protein deacylase sirtuin-5, mitochondrial (Q9NXA8 whole entry): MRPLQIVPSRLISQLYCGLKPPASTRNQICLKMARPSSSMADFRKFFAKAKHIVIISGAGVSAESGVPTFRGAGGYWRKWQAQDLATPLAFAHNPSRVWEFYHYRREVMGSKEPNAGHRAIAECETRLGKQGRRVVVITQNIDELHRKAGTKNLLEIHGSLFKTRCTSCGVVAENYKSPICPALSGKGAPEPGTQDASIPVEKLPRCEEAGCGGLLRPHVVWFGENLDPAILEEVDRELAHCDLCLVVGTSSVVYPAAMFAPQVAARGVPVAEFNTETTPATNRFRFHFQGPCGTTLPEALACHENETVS

[4] = target: Mothers against decapentaplegic homolog 3 (Homo sapiens, UniProt P84022); test: inhibitors of SMAD-driven TGF-beta signaling – dose response (AID 715); assay type: functional
Sequence of Mothers against decapentaplegic homolog 3 (P84022 whole entry): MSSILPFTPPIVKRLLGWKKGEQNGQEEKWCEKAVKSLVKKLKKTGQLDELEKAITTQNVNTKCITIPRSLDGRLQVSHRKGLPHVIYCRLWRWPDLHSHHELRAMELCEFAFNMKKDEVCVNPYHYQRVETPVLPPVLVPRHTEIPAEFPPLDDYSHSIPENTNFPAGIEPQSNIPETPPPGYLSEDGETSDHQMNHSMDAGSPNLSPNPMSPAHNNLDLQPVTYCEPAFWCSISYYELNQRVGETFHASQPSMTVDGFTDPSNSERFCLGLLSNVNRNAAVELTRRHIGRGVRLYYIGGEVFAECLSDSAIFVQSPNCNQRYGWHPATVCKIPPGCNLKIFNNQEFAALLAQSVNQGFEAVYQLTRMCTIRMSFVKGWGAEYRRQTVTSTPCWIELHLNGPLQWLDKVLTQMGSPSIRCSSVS

Cytochrome P450 2C19 = Cytochrome P450 2C19 (Homo sapiens, UniProt P33261); test: Cytochrome panel assay with activity outcomes. Panel member name: p450-cyp2c19 Compounds with AC50 equal or less than 10 uM are considered active; assay type: functional
Sequence of Cytochrome P450 2C19 (P33261 whole entry): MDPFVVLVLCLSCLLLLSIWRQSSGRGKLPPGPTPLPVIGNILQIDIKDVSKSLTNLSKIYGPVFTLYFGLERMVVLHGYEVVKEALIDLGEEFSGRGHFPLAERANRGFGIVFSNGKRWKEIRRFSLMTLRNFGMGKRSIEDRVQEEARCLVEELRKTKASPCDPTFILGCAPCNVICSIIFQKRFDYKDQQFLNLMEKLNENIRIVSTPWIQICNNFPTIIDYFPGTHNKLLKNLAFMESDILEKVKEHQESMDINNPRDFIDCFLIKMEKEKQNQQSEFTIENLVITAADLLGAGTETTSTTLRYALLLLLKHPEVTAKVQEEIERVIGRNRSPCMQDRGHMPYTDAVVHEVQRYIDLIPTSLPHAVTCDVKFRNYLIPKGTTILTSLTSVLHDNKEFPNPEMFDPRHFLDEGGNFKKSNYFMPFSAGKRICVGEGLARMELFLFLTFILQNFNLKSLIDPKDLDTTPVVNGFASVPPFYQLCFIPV

Cytochrome P450 2D6 = Cytochrome P450 2D6 (Homo sapiens, UniProt P10635);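 further: CYP2D6 member of a cytochrome P450 panel assay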
Sequence of Cytochrome P450 2D6 (P10635 whole entry): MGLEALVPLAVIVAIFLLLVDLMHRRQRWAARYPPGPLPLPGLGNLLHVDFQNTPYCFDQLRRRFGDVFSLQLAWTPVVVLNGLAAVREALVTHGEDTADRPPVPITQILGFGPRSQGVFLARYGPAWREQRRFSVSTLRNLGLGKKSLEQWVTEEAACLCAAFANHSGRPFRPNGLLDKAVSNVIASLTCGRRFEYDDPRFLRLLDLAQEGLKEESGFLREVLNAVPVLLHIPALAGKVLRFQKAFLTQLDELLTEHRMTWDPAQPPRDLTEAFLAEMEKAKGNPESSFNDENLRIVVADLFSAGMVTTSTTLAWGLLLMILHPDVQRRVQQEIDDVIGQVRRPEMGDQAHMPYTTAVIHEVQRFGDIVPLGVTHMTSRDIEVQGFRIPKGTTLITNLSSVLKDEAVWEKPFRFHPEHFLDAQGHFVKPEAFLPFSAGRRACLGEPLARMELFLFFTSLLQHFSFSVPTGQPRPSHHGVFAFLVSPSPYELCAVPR

[5] = HIV-1 Vif–A3G interaction blockers – biochemical, TR-FRET, GST-Vif 1-94, biotin-A3G peptide, dose response retest, primary screen (AID 1117319); assay type: functional;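 further: TR-FRET signal of purified GST-Vif binding a biotinylated A3G peptide; inhibitors lower the FRET signal by blocking Vif and A3G binding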
[6] = antimalarial activity against Dd2 parasites – SYBR Green fluorescence, erythrocytes, dry powder, set 2, dose response (AID 1159574); assay type: functional, cell-based
Vero = test: mammalian cell viability reduction – secondary assay, cytotoxicity control for West Nile virus antiviral project, dose response (AID 1650); assay type: functional; settings: Chlorocebus sabaeus
[7] = A High Throughput Confirmatory Assay used to Identify Novel Compounds that Inhibit Mycobacterium Tuberculosis in the absence of Glycerol.; assay type: functional
[8] = microbe, parasite or virus in culture; assay type: functional; settings: Mycobacterium tuberculosis
Cytochrome P450 3A4 = Cytochrome P450 3A4 (Homo sapiens, UniProt P08684);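 further: CYP3A4 tested as one member of a cytochrome P450 panel screen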
Sequence of Cytochrome P450 3A4 (P08684 whole entry): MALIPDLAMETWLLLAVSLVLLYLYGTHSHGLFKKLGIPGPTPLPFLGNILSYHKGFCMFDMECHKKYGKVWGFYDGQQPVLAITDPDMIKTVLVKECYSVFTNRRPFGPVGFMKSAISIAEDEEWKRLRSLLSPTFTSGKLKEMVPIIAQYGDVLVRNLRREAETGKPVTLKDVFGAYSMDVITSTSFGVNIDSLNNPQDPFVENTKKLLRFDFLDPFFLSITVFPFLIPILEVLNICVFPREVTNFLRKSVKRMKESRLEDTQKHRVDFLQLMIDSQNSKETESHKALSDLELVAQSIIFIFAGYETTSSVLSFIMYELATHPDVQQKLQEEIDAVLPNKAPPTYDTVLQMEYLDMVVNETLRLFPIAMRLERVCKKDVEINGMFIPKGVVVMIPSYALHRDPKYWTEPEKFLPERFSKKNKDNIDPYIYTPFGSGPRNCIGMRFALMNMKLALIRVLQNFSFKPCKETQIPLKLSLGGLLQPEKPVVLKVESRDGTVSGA

[9] = A Cell-Based Confirmatory Screen for Compounds that Inhibit VEEV, TC-83 (8).; assay type: functional
[10] = A Cell-Based Confirmatory Screen for Compounds that Inhibit VEEV, TC-83 (5).; assay type: functional
[11] = A Cell-Based Confirmatory Screen for Compounds that Inhibit VEEV TC-83 (4).; assay type: functional
[12] = tested on: Streptococcus sp. 'group A'; test: Streptococcus pyogenes SK(-)GAS viability under kanamycin – luminescence, BacTiterGlo, confirmation, counter-screen for streptokinase expression inhibitor project, dose response (AID 1900); assay type: functional, organism-based
Streptokinase A = target: T1, Streptokinase A (Streptococcus pyogenes serotype M1, UniProt P10520); test: viability-normalized secreted streptokinase activity reduction – plasminogen activation absorbance, OD405, dose response (AID 1914); assay type: functional, Streptococcus pyogenes M1 GAS;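 further: secreted streptokinase activity via plasminogen activation per viability signal from cell pellet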
T1 sequence (P10520 whole entry): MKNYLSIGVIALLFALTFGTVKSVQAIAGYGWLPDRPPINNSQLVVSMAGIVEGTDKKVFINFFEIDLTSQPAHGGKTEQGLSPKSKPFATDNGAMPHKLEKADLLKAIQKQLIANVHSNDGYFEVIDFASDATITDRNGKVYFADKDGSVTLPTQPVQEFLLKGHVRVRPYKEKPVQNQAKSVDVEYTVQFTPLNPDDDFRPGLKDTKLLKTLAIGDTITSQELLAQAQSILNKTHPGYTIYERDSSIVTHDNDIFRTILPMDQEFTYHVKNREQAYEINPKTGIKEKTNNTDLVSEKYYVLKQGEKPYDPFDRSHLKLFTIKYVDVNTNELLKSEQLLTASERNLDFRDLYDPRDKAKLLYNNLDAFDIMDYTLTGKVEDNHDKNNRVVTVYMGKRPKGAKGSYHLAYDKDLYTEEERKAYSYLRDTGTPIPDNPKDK

Streptococcus = test: GAS UMAA2166 growth inhibition – luminescence, BacTiterGlo, counter-screen for streptokinase expression inhibitor project, dose response (AID 1915); assay type: functional, organism-based;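 further: potency for reduction of bacterial viability or growth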
[13] = THP-1 cell cytotoxicity, dose response, cytotoxicity control for non-replicating M. tuberculosis project (AID 489025); assay type: functional
[14] = HepG2 cell cytotoxicity, dose response, cytotoxicity control for non-replicating M. tuberculosis project (AID 489018); assay type: functional; settings: Mycobacterium tuberculosis
[15] = Vero E6 cell cytotoxicity, dose response, cytotoxicity control for non-replicating M. tuberculosis project, secondary assay (AID 492998); assay type: functional, VeroE6; settings: Vero C1008
cells = assay type: functional
[16] = ATP-based viability loss in HEK293T cells – cell-based, CellTiter-Glo luminescence, dry powder, set 2, cytotoxicity control, dose response (AID 720595); assay type: functional; settings: HEK293
[17] = ATP-based viability loss in HeLa cells – cell-based, CellTiter-Glo luminescence, dry powder, set 2, cytotoxicity control, dose response (AID 720593); assay type: functional
[18] = Dd2 parasite growth inhibition in erythrocytes – SYBR Green, dry powder samples, set 9, dose response (AID 1159568); assay type: functional, cell-based

CCCN1CCCC[C@H]1C(=O)Nc1c(C)cccc1C [ROPIVACAINE HYDROCHLORIDE]
AC50 (HeLa): > 52 µM (inactive)
IC50 [1]: > 33.3 µM (inactive)

O=C1NC(=O)N(c2ccccc2F)C(=O)/C1=C/c1ccc(Sc2nc3ccccc3[nH]2)o1
IC50 (Large T antigen): 19.5 µM (active)
IC50 [2]: 219 µM (active)
IC50 (Nonstructural protein 1): > 100 µM (active)
AC50 (Protein S100-A4): 1.28 µM (active)

Cc1cccc(S(=O)(=O)N(C)C[C@H]2OCc3cnnn3CCCC(=O)N([C@H](C)CO)C[C@@H]2C)c1
AC50 [3]: 23.9 µM (active)

O=C(NCCCN1CCCCCC1)C1CC(=O)N(CCc2ccccc2)C1 (stereo unspecified)
IC50 [4]: 10.2 µM (active)
AC50 (Cytochrome P450 2C19): inconclusive
AC50 (Cytochrome P450 2D6): 25.1 µM (inconclusive)

CCn1c(=O)cc(N2CCC3(CC2)OCCO3)[nH]c1=O
IC50 [5]: > 100 µM (active)

COc1ccc(S(=O)(=O)N(C)C[C@@H]2OCc3ccccc3-c3c(n(C)c4ccccc34)C(=O)N([C@H](C)CO)C[C@@H]2C)cc1
AC50 [6]: 6.36 µM (active)

COc1ccccc1C1CC(c2c(O)nc3ccc(Cl)cc3c2-c2ccccc2)=NN1S(C)(=O)=O (stereo unspecified)
CC50 (Vero): 16 µM (active)
IC50 [7]: > 100 µM (active)
CC50 [8]: 25.2 µM (active)
AC50 (Cytochrome P450 2D6): 7.08 µM (inconclusive)
AC50 (Cytochrome P450 3A4): 39.8 µM (inconclusive)

CCN1CCN(Cc2nc3ccc([N+](=O)[O-])cc3c(=O)n2-c2ccccc2)CC1
IC50 [9]: 0.32 µM (active)
IC50 [10]: 0.27 µM (active)
IC50 [11]: 0.01 µM (active)

O=C(Nc1nc(-c2ccccn2)cs1)c1ccco1
EC50 [12]: 10.8 µM (active)
EC50 (Streptokinase A): > 150 µM (not active)
EC50 (Streptococcus): > 150 µM (not active)
CC50 [13]: 6.1 µM (active)
CC50 [14]: > 20 µM (active)
CC50 [15]: 11.3 µM (active)
IC50 (Nonstructural protein 1): 7.12 µM (active)
IC50 (cells): 1.68 µM (active)
AC50 [16]: 7.58 µM (active)
AC50 [17]: > 52 µM (inactive)

O=C(Nc1ccccc1F)N1CCCCN2[C@H](C1)[C@@H](c1ccc(/C=C/c3ccccc3)cc1)[C@@H]2CO
AC50 [18]: 7.14 µM (active)
